Results as given in US10669250B2, “Hypervalent iodine CF2CF2X reagents and their use” (ETH Zurich, priority 2014, dated 2020).
Where a name gives a salt, the structure may show the parent alone. One block for each compound: values may come before it.

Assay: Storage stability of reagent 7 and its Boc and salt forms
Assay type: physicochemical
Description: The synthesis of reagent 7-salt is described in Scheme 1. The phenolic oxygen of Boc-protected NMT (N-methyltyramine) was deprotonated with NaH and treated with BrCF2CF2Br (Halon 2402) giving the bromide 4, which was converted to corresponding fluoroalkylsilane 5. […] For that reason, it was generated in situ from 7-salt by addition of base in all subsequent syntheses.

storage stability (isolated deprotected reagent, stored in a freezer): decomposed rapidly
Compound: CNCCc1ccc(OC(F)(F)C(F)(F)I2OC(C)(C)c3ccccc32)cc1 [Reagent 7, 2-(4-(2-(3,3-Dimethyl-1λ^3-benzo[d][1,2]iodaoxol-1 (3H)-yl)-1,1,2,2-tetrafluoroethoxy)phenyl)-N-methylethan-1-amine]

storage stability (brown oil, at −20° C.): stable for at least for six months
Compound: CN(CCc1ccc(OC(F)(F)C(F)(F)I2OC(C)(C)c3ccccc32)cc1)C(=O)OC(C)(C)C [Reagent 7-Boc, tert-Butyl (4-(2-(3,3-dimethyl-1λ^3-benzo[d][1,2]iodaoxol-1 (3H)-yl)-1,1,2,2-tetrafluoroethoxy)phenethyl)-(methyl)carbamate]

storage stability (crystalline, at room temperature): appeared stable
Compound: CNCCc1ccc(OC(F)(F)C(F)(F)I2OC(C)(C)c3ccccc32)cc1 [Reagent 7-salt, 3,3-Dimethyl-1-(1,1,2,2-tetrafluoro-2-(4-(2-(methylammonio)ethyl)phenoxy)ethyl)-2,3-dihydro-1H-1λ^3-benzo[d][1,2]iodaoxol-2-ium bis(trifluoroacetate)]
